Data on one substance can be found in paper PMC9649612, “Molecular docking and biochemical validation of (-)-syringaresinol-4-O-β-D-apiofuranosyl-(1→2)-β-D-glucopyranoside binding to an allosteric site in monoamine transporters” (Frontiers in Pharmacology, 2022).

By IC50 is commonly meant the midpoint of a concentration-inhibition curve.

In test [1] the target is T1, WT-hSERT (Homo sapiens, UniProt P31645).
T1 construct: expressed in transfected cells; host or cells: HeLa (ATCC CCL-2), transient, pcDNA3.1
Put plainly: APP+ transport (uptake) in HeLa cells expressing WT-hSERT. Type of test: cell-based. To be noted: 2 μM APP+ 5 min, SAG added 5 min prior, intact HeLa cells. The procedure: (§1) HeLa cells were cultured in Dulbecco’s Modified Eagle’s Medium supplemented with 10% fetal bovine serum, 100 units/ml penicillin, and 100 μg/ml streptomycin at 37°C in a humidified 5% CO2 incubator. Cells were plated in a 6-well culture plate and grown overnight. Cells at ∼70% confluence were transfected with hSERT, hDAT, or hNET cDNA in pcDNA3.1 by lipofectamine 2000. Transfected cells were incubated for 24 h at 37°C with 5% CO2 and then transferred into a 12-well plate placed with polylysine coated slides. After grown for additional 12–16 h, the cells were assayed for APP^+ or ASP^+ fluorescence image acquisition.
(§2) The cells expressing WT or mutants of hSERT, hDAT, or hNET were wet mounted on polylysine coated glass slides in 12-well plates and applied for the indicated treatments. […] The extent of APP^+ accumulated in the cells was determined by confocal imaging analysis. ASP^+ binding to SERT in the cell membrane was measured with digitonin-permeabilized cells ([Li M. et al., 2022a]). […] After removing excess ASP^+ by rapid washing three times, ASP^+ binding was determined by confocal imaging analysis.
(§3) Images were analyzed using Zen Blue software.
(§4) Nonlinear regression fits of experimental and calculated data were performed with Origin (Origin Lab). […]

Test [2] addresses T2, hSERT Q111N (S2 site mutant) (Homo sapiens, UniProt P31645, Q111N).
T2 construct: expressed in transfected cells; host or cells: HeLa (ATCC CCL-2), transient, pcDNA3.1
Put plainly: APP+ transport in HeLa cells expressing hSERT mutant Q111N. The class given is cell-based. To be noted: 2 μM APP+ 5 min, intact HeLa cells, read-out: SAG IC50 for transport. The procedure:
(§5) The mutants used for this study were constructed in the WT background carried by the expression plasmids for hSERT, hDAT, or hNET under the control of CMV promotor in pcDNA3.1 vector, respectively. All mutants were generated using the Mut Express II Fast Mutagenesis Kit (Vazyme) and confirmed by full-length DNA sequencing.
(§6) HeLa cells were cultured in Dulbecco’s Modified Eagle’s Medium supplemented with 10% fetal bovine serum, 100 units/ml penicillin, and 100 μg/ml streptomycin at 37°C in a humidified 5% CO2 incubator. Cells were plated in a 6-well culture plate and grown overnight. Cells at ∼70% confluence were transfected with hSERT, hDAT, or hNET cDNA in pcDNA3.1 by lipofectamine 2000. […] After grown for additional 12–16 h, the cells were assayed for APP^+ or ASP^+ fluorescence image acquisition.
as §2
(§7) Images were analyzed using Zen Blue software. […]

The target of test [3] is T3, hSERT T497A (S2 site mutant) (Homo sapiens, UniProt P31645, T497A).
T3 construct: expressed in transfected cells; host or cells: HeLa (ATCC CCL-2), transient, pcDNA3.1
The test is described as follows: APP+ transport in HeLa cells expressing hSERT mutant T497A. The class given is cell-based. To be noted: 2 μM APP+ 5 min, intact HeLa cells, read-out: SAG IC50 for transport. The procedure: as §5, §6, §2, §7

Test [4] concerns the target T4, hSERT G498T (S2 site mutant) (Homo sapiens, UniProt P31645, G498T).
T4 construct: expressed in transfected cells; host or cells: HeLa (ATCC CCL-2), transient, pcDNA3.1
Put plainly: APP+ transport in HeLa cells expressing hSERT mutant G498T. Type of test: cell-based. The note with it: 2 μM APP+ 5 min, intact HeLa cells, read-out: SAG IC50 for transport. The procedure: as §5, §6, §2, §7

The target of test [5] is T5, hSERT P499G (S2 site mutant) (Homo sapiens, UniProt P31645, P499G).
T5 construct: expressed in transfected cells; host or cells: HeLa (ATCC CCL-2), transient, pcDNA3.1
Put plainly: APP+ transport in HeLa cells expressing hSERT mutant P499G. Type of test: cell-based. To be noted: 2 μM APP+ 5 min, intact HeLa cells, read-out: SAG IC50 for transport. The procedure:
as §5, §6, §2, §7

Test [6] deals with T6, hSERT S559A (S2 site mutant) (Homo sapiens, UniProt P31645, S559A).
T6 construct: expressed in transfected cells; host or cells: HeLa (ATCC CCL-2), transient, pcDNA3.1
The test is described as follows: APP+ transport in HeLa cells expressing hSERT mutant S559A. The class given is cell-based. The note with it: 2 μM APP+ 5 min, intact HeLa cells, read-out: SAG IC50 for transport. The procedure: as §5, §6, §2, §7

The target in test [7] is T7, hSERT P560G (S2 site mutant) (Homo sapiens, UniProt P31645, P560G).
T7 construct: expressed in transfected cells; host or cells: HeLa (ATCC CCL-2), transient, pcDNA3.1
The test is described as follows: APP+ transport in HeLa cells expressing hSERT mutant P560G. To be noted: 2 μM APP+ 5 min, intact HeLa cells, read-out: SAG IC50 for transport. The class given is cell-based. The procedure: as §5, §6, §2, §7

Test [8] deals with T8, hSERT P561G (S2 site mutant) (Homo sapiens, UniProt P31645, P561G).
T8 construct: expressed in transfected cells; host or cells: HeLa (ATCC CCL-2), transient, pcDNA3.1
Put plainly: APP+ transport in HeLa cells expressing hSERT mutant P561G. Type of test: cell-based. The note with it: 2 μM APP+ 5 min, intact HeLa cells, read-out: SAG IC50 for transport. The procedure:
as §5, §6, §2, §7

The target in test [9] is T9, hSERT Q562N (S2 site mutant) (Homo sapiens, UniProt P31645, Q562N).
T9 construct: expressed in transfected cells; host or cells: HeLa (ATCC CCL-2), transient, pcDNA3.1
Put plainly: APP+ transport in HeLa cells expressing hSERT mutant Q562N. Type of test: cell-based. The note with it: 2 μM APP+ 5 min, intact HeLa cells, read-out: SAG IC50 for transport. The procedure: as §5, §6, §2, §7

Test [10] deals with T10, hSERT S438T (S1 site mutant) (Homo sapiens, UniProt P31645, S438T).
T10 construct: expressed in transfected cells; host or cells: HeLa
Put plainly: APP+ transport in HeLa cells expressing hSERT mutant S438T. The class given is cell-based. The note with it: 2 μM APP+ 5 min, intact HeLa cells, read-out: SAG IC50 for transport. The procedure: as §5, §6, §2, §7

The target of test [11] is T1, WT-hSERT. The test is described as follows: ASP+ binding in digitonin-permeabilized HeLa cells expressing WT-hSERT. The note with it: 10 μM ASP+ 5 min, 25 μg/ml digitonin-permeabilized HeLa cells, read-out: SAG IC50 for binding. The procedure: as §1, §2, §3, §4
The target in test [12] is T11, hSERT I327A (S2 site mutant) (Homo sapiens, UniProt P31645, I327A).
T11 construct: expressed in transfected cells; host or cells: HeLa (ATCC CCL-2), transient, pcDNA3.1
The test is described as follows: ASP+ binding in digitonin-permeabilized HeLa cells expressing hSERT I327A. The note with it: 10 μM ASP+, read-out: SAG IC50 for binding. The procedure: as §5, §6, §2, §7

A further test has as its target T12, WT-hDAT (Homo sapiens, UniProt Q01959).
T12 construct: expressed in transfected cells; host or cells: HeLa
The test is described as follows: APP+ transport (uptake) in HeLa cells expressing WT-hDAT. Type of test: cell-based. To be noted: WT hDAT; APP+ transport, intact HeLa cells; read-out: SAG IC50. The procedure: as §1, §2, §3, §4

For test [13], the target named is T13, hDAT Q317A (S2 site mutant) (Homo sapiens, UniProt Q01959, Q317A).
T13 construct: expressed in transfected cells; host or cells: HeLa
T13 sequence (Q01959 whole entry Q317A): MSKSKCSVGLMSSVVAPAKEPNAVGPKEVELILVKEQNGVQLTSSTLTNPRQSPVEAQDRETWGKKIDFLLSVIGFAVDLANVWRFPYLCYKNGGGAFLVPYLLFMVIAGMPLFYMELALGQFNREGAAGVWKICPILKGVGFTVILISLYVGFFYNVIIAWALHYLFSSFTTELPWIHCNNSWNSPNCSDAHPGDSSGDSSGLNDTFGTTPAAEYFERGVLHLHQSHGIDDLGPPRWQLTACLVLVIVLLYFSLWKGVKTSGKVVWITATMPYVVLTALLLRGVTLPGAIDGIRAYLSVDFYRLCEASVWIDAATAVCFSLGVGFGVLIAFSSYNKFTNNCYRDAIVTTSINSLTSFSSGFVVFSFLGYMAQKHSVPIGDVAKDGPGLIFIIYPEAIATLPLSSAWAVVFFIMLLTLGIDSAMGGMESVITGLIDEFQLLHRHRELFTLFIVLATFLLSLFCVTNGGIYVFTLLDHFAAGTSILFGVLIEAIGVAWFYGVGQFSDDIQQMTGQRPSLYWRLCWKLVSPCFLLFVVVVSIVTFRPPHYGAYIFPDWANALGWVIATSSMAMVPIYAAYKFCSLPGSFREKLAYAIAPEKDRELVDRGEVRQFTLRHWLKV
Put plainly: APP+ transport in HeLa cells expressing hDAT mutant Q317A. The class given is cell-based. To be noted: intact HeLa cells, read-out: SAG IC50. The procedure:
as §5, §6, §2, §7

Test [14] concerns the target T14, hDAT D476N (S2 site mutant) (Homo sapiens, UniProt Q01959, D476N).
T14 construct: expressed in transfected cells; host or cells: HeLa
The test is described as follows: APP+ transport in HeLa cells expressing hDAT mutant D476N. The class given is cell-based. The note with it: intact HeLa cells, read-out: SAG IC50. The procedure:
as §5, §6, §2, §7

The target of test [15] is T15, hDAT H477Q (S2 site mutant) (Homo sapiens, UniProt Q01959, H477Q).
T15 construct: expressed in transfected cells; host or cells: HeLa
T15 sequence (Q01959 whole entry H477Q): as the sequence (Q01959 whole entry Q317A) above, with A317Q, H477Q counted along it
The test is described as follows: APP+ transport in HeLa cells expressing hDAT mutant H477Q. The class given is cell-based. To be noted: intact HeLa cells, read-out: SAG IC50. The procedure:
as §5, §6, §2, §7

The target in test [16] is T16, hDAT F76V (S1 site mutant) (Homo sapiens, UniProt Q01959, F76V).
T16 construct: expressed in transfected cells; host or cells: HeLa
T16 sequence (Q01959 whole entry F76V): as the sequence (Q01959 whole entry Q317A) above, with F76V, A317Q counted along it
Put plainly: APP+ transport in HeLa cells expressing hDAT mutant F76V. The class given is cell-based. The procedure:
as §5, §6, §2, §7

The target of another test is T17, WT-hNET (Homo sapiens, UniProt P23975).
T17 construct: expressed in transfected cells; host or cells: HeLa
T17 sequence (P23975 whole entry): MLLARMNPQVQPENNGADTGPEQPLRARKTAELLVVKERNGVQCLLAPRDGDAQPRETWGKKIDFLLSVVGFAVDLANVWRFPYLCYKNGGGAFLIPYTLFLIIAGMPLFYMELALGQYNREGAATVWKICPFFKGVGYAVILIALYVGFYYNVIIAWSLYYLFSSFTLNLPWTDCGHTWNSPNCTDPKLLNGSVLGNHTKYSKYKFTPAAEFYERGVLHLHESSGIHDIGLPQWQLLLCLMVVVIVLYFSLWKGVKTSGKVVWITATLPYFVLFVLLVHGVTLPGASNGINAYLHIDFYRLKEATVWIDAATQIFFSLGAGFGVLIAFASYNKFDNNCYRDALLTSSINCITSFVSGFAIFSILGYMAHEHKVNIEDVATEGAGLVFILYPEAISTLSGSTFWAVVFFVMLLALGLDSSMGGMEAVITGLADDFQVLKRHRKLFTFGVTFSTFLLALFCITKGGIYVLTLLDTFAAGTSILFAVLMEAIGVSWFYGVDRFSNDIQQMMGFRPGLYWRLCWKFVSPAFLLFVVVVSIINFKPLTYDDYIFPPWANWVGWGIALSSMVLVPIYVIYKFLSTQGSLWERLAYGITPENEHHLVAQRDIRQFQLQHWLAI
Put plainly: APP+ transport (uptake) in HeLa cells expressing WT-hNET. The class given is cell-based. The note with it: WT hNET; APP+ transport, intact HeLa cells; read-out: SAG IC50. The procedure:
as §1, §2, §3, §4

Test [17] concerns the target T18, hNET Q314A (S2 site mutant) (Homo sapiens, UniProt P23975, Q314A).
T18 construct: expressed in transfected cells; host or cells: HeLa
The test is described as follows: APP+ transport in HeLa cells expressing hNET mutant Q314A. Type of test: cell-based. The note with it: intact HeLa cells, read-out: SAG IC50. The procedure:
as §5, §6, §2, §7

The target in test [18] is T19, hNET T474Q (S2 site mutant) (Homo sapiens, UniProt P23975, T474Q).
T19 construct: expressed in transfected cells; host or cells: HeLa
T19 sequence (P23975 whole entry T474Q): as the sequence (P23975 whole entry) above, with T474Q counted along it
The test is described as follows: APP+ transport in HeLa cells expressing hNET mutant T474Q. Type of test: cell-based. The procedure: as §5, §1
The cells expressing WT or mutants of hSERT, hDAT, or hNET were wet mounted on polylysine coated glass slides in 12-well plates and applied for the indicated treatments. In brief, the cells were washed twice with 500 μl KRH buffer containing 20 mM HEPES, pH 7.4, 120 mM NaCl, 1.3 mM KCl, 2.2 mM CaCl2, 1.2 mM MgSO4, and 0.1% (w/v) glucose. […] Excess APP^+ was then removed by rapid washing three times with 500 μl KRH buffer. The extent of APP^+ accumulated in the cells was determined by confocal imaging analysis. ASP^+ binding to SERT in the cell membrane was measured with digitonin-permeabilized cells ([Li M. et al., 2022a]). […] After removing excess ASP^+ by rapid washing three times, ASP^+ binding was determined by confocal imaging analysis.
as §3
Nonlinear regression fits of experimental and calculated data were performed with Origin (Origin Lab). The statistical analysis given was from multiple experiments. Data with error bars in the figures represent the mean ± SD for at least 10 measurements per condition in one experiment or the mean ± SEM from at least three experiments as indicated, respectively. […]

Test [19] addresses T20, hNET A477G (S2 site mutant) (Homo sapiens, UniProt P23975, A477G).
T20 construct: expressed in transfected cells; host or cells: HeLa
Put plainly: APP+ transport in HeLa cells expressing hNET mutant A477G. The class given is cell-based. The note with it: intact HeLa cells, read-out: SAG IC50. The procedure: as §5, §6, §2, §7

T20 sequence (P23975 whole entry A477G): as the sequence (P23975 whole entry) above, with A477G counted along it
T14 sequence (Q01959 whole entry D476N): as the sequence (Q01959 whole entry Q317A) above, with A317Q, D476N counted along it
T18 sequence (P23975 whole entry Q314A): as the sequence (P23975 whole entry) above, with Q314A counted along it
T12 sequence (Q01959 whole entry): as the sequence (Q01959 whole entry Q317A) above, with A317Q counted along it

As to “(-)-Syringaresinol-4-O-β-D-apiofuranosyl-(1→2)-β-D-glucopyranoside [SAG]”, the half-maximal inhibitory concentration (IC50) against WT-hSERT [1] came out at 2.54 ± 0.13 µM; in test [2], 19.1 ± 2.2 µM; in test [3] it was 111 ± 2 µM; in [4], 69.2 ± 3.3 µM; in test [5], 88.1 ± 2.8 µM; in [6], 20.2 ± 1.9 µM. Further, the IC50 was 243 ± 10 µM in [7]; above 1000 µM in [8]; 289 ± 11 µM in [9]; 10.3 ± 0.49 µM in [10]; 7.88 ± 0.35 µM on WT-hSERT [11]; 48.3 ± 4.6 µM in test [12]. In addition, the IC50 turned out to be 31.9 ± 2.8 µM on WT-hDAT; 51.3 ± 3.1 µM in test [13]; 93.8 ± 3.9 µM in test [14]; 72.4 ± 4.8 µM in [15]; 18.2 ± 0.8 µM in [16] (hDAT F76V (S1), intact HeLa cells, read-out: SAG IC50); 40.1 ± 2.8 µM on WT-hNET. Moreover, the half-maximal inhibitory concentration (IC50) in [17] is 4.37 ± 1.06 µM; in test [18] (hNET T474Q, intact HeLa cells, read-out: SAG IC50), 49.3 ± 7.9 µM; in test [19], above 1000 µM. Also, the “Effect of mutation on SAG inhibition potency” value in test [16] (hDAT S1 residue Phe76 replaced) is “little effect”. Besides, in test [18] (hNET T474Q vs WT-hNET), the “Change in SAG inhibition potency compared to WT” value is recorded as “little change”. Moreover, the “Decrease in SAG inhibition potency compared with WT” value in test [18] (hNET T474Q vs WT-hNET) was “less than 3 folds”.
